Tests used:
HCT116 [1] = experiment: Real-time quantitative PCR (qPCR) of HCT116; assay type: cell-based, human; conditions: for inhibition of activation of inflammatory genes, mRNA / inhibition of activation of tumor growth genes (Wnt, oncogenes), mRNA: FadAc, 2 hrs incubation
Experimental: (§1) Total RNA was extracted from CRC cells, xenografts, or clinical specimens. cDNA synthesis and RT-PCR were performed as previously described, using primers listed in Table 1. Data were analyzed by the ΔΔCt method and normalized to the GAPDH or Fn-specific 16S rRNA. To quantify the fadA gene copies, plasmid carrying fadA was serially diluted to 10^2-10^8 fadA copies/μl and used to generate standard curves for Ct values. The fadA gene copies in the clinical samples were calculated based on the standard curves. Each experiment was performed in triplicates and repeated at least three times.

[2] = system: E-cadherin-mediated cellular signaling in HCT116; experiment: Subcellular fractions of HCT116, Western blot; assay type: cell-based, human; conditions: 50 μM inhibitor pre-incubated 1 hour, FadAc
Description: The following antibodies were used: anti-FadA monoclonal antibody (mAb) 5G11-3G8 (Xu et al., 2007), mAb anti-CDH1 (Abcam or Cell Signaling Tech), polyclonal anti-phospho-CDH1 (ECM Biosciences), mAb anti-GAPDH (Invitrogen), mAb anti-β-catenin (R&D systems), polyclonal anti-phospho-β-catenin (Cell Signaling Tech), mAb anti-LEF/TCF1 (Invitrogen), mAb anti-NFkB (Invitrogen), mAb anti-Myc (Cell Signaling Tech), mAb anti-cyclin D1 (Cell Signaling Tech), mAb anti-EGFR (Cell Signaling Tech), mAb anti-GAPDH (Cell Signaling Tech), mAb anti-PCNA (Cell Signaling Tech), polyclonal goat-anti-mouse or goat-anti-rabbit secondary antibody conjugated with horseradish peroxidase (HRP) (Pierce Biotechnology). Peptides were synthesized by Neo Group, Inc (Cambridge, Mass.). Western blot analyses were performed as previously described.
Cells were incubated with 1 mg/ml of FadAc or mFadA followed by the extraction of subcellular fractions. When indicated, 50 μM of the corresponding protein tyrosine kinase inhibitor (Genistein) and clathrin inhibitor (Pitstop2) were pre-incubated with cells for 1 hour. Membrane, cytosolic and nuclei fractions were prepared using the Compartmental Protein Extraction kit (Millipore) according to the manufacturer's instructions.

Fn [3] = experiment: Tissue culture attachment assay, Fn on HCT116; assay type: cell-based, Fusobacterium nucleatum; conditions: for inhibition of Fn attachment of HCT116: MOI 50, 1 hr
Experimental: (§2) Cells were seeded in 24-well or 96-well plates at 8×10^4 cells or 2.5×10^4 cells per well in the growth medium and grown to 100% confluent. Bacteria were added to the cells at a multiplicity of infection (MOI) of 50. Following 1 hr incubation at 37° C. in 5% CO2, the monolayers were washed 3 times with D-PBS, pH 7.1, supplemented with Ca^2+ and Mg^2+. Cells were lyzed with water for 20 min at 37° C. Serial dilutions of the lysates were plated onto blood agar plates to enumerate the total cell-associated bacteria. For invasion assays, the bacteria were incubated with the monolayers at 37° C. for 4 hrs, followed by washes with PBS. Fresh media containing 300 μg/ml gentamicin and 200 μg/ml metronidazole were added to the monolayers and incubated for an additional hour to kill extracellular bacteria. The cells were then washed and lyzed with water as described above. The levels of attachment and invasion were expressed as the percentage of bacteria recovered following cell lysis relative to the total number of bacteria initially added. Each experiment was performed in triplicates and repeated at least twice.

Fn [4] = experiment: Tissue culture invasion assay, Fn into HCT116; assay type: cell-based, Fusobacterium nucleatum; conditions: for inhibition of Fn invasion of HCT116: MOI 50, 4 hrs
Experimental: as §2

HCT116 xenografts [5] = experiment: qPCR of HCT116 xenografts; assay type: in vivo, mice; conditions: FadAc or wild-type Fn
Experimental: (§3) The animal protocol was approved by the Case Western Reserve University Institutional Animal Care and Use Committee. An inoculum of 5×10^6 cells were injected s.c. and bilaterally into 4- to 6-week-old female nude mice (5 per group) as previously described. The mice were randomized to receive one of the following: FadAc or mFadA (each at 80 μg), BSA (0.01 μmol, i.e., 660 μg), or peptide (0.01 μmol), or bacteria at 1×10^7 cfu, at each inoculation site.
as §1

[6] = system: Fusobacterium nucleatum (Fn); experiment: Fn invasion of endothelial cells; assay type: cell-based; conditions: FIG. 8
Experimental: as §2

Fn [7] = experiment: Immunohistochemical staining of Fn-infected HCT116 xenografts; assay type: in vivo, Fusobacterium nucleatum; conditions: wild-type Fn injected into HCT116 xenografts
Experimental: Immunofluorescent staining of cells was performed as previously described. Mouse anti-β-catenin mAb and Alexa Fluor 634-conjugated goat anti-mouse polyclonal antibodies were used. IHC analysis of xenograft tumors were performed as previously described, using rabbit anti-Fn polyclonal antibodies. Pre-immune serum from the same rabbit was used as control.
as §3

[8] = system: Fusobacterium nucleatum (Fn); experiment: Fn attachment of endothelial cells; assay type: cell-based; conditions: FIG. 8
Experimental: as §2

HCT116 [9] = experiment: Cell proliferation assay, HCT116; assay type: cell-based, human; conditions: bacteria at MOI 1000:1
Experimental: (§4) CRC cells were seeded in 24-well plates at 1×10^4 cells per well in the growth medium. Cells were untreated, or incubated with FadAc or peptides at indicated concentration, or with bacteria at a multiplicity of infection (MOI) of 1000:1. Cell numbers were counted at 24-hour intervals using a hemocytometer. Each experiment was performed in triplicates and repeated at least twice.

[10] = system: RKO cells transfected with CDH1; experiment: Cell proliferation assay, RKO cells transfected with CDH1; assay type: cell-based, human; conditions: bacteria at MOI 1000:1
Experimental: CDH1 transfections were performed as previously described. siRNA assays were performed using the FlexiTube siRNA anti-CDH1 or anti-beta-catenin reagent and All Stars FlexiTube Control siRNA from Qiagen (Valencia, Calif.) according the manufacturer's instructions.
as §4

HCT116 xenografts [11] = experiment: HCT116 xenograft tumor growth in nude mice; assay type: in vivo; conditions: 0.01 μmol peptide with FadAc
Experimental: as §3

## O=c1c(-c2ccc(O)cc2)coc2cc(O)cc(O)c12 [Genistein]
HCT116 [1]
  inhibition of activation of inflammatory genes, mRNA: inhibited
  inhibition of activation of tumor growth genes (Wnt, oncogenes), mRNA: inhibited
[2]
  effect of inhibitor on CRT activation (β-catenin translocation, LEF/TCF, Wnt and oncogenes): abolished
  effect of inhibitor on E-cadherin phosphorylation: prevented
  effect of inhibitor on FadA and E-cadherin internalization: prevented
  effect of inhibitor on FadA binding to the membranes: abolished

## O=C1NC(=NS(=O)(=O)c2cccc3ccccc23)S/C1=C\c1ccc(Br)cc1 [Pitstop2]
HCT116 [1]
  inhibition of activation of inflammatory genes, mRNA: only inhibited the inflammatory genes
  inhibition of activation of tumor growth genes (Wnt, oncogenes), mRNA: not
HCT116 [1]; wild type Fn
  effect on Fn-stimulated expression of NF-kappaB and cytokines IL-6, 8, and 18: abolished
Fn [3]
  inhibition of Fn attachment of HCT116: without affecting attachment
[2]
  effect of inhibitor on CRT activation (β-catenin translocation, LEF/TCF, Wnt and oncogenes): unaffected
  effect of inhibitor on E-cadherin phosphorylation: did not affect
  effect of inhibitor on FadA and E-cadherin internalization: inhibited
  effect of inhibitor on FadA binding to the membranes: did not affect
  effect of inhibitor on NF kappaB activation: no NF kappaB activation was observed
Fn [4]
  inhibition of Fn invasion of HCT116: prevented

## ASANWTIQYND [inhibitory peptide]
HCT116 xenografts [5]
  inhibition of stimulation of tumor growth genes and inflammatory genes in xenografts: inhibited
Fn [3]
  inhibition of Fn attachment of HCT116: minimum required
[6]
  block of Fn invasion of endothelial cells: block
Fn [7]
  prevention of Fn invasion into tumor tissues: prevented
[8]
  block of Fn attachment of endothelial cells: block
HCT116 [9]
  inhibition of Fn-stimulated HCT116 growth: inhibited
[10]
  suppression of Fn growth stimulation of CDH1-transfected RKO cells: diminished
Fn [4]
  inhibition of Fn invasion of HCT116: minimum required
HCT116 xenografts [11]
  effect of peptide on FadAc-stimulated tumor growth: No increase was detected

B1: GST-EC5 fusion protein: purified GST fusion protein carrying the EC5 domain of E-cadherin (protein)
chain: IPEPRTIFFCERNPKPQVINIIDADLPPNTSPFTAELTHGASANWTIQYNDPTQESIILKPKMALEVGDYKINLKLMDNQNKDQVTTLEVSVCDCEGAAGVCRK
modifications: left off: a dimerising Fc or GST
notes: purified GST fusion protein carrying the EC5 domain of E-cadherin
Fn [3]
  concentration of maximum inhibition of Fn attachment of HCT116: 0.1 µM
  inhibition of Fn attachment of HCT116: inhibited by purified GST-EC5 fusion protein in a dose-dependent manner
HCT116 [9]
  inhibition of Fn-stimulated HCT116 growth: inhibited
[10]
  suppression of Fn growth stimulation of CDH1-transfected RKO cells: diminished
Fn [4]
  concentration of maximum inhibition of Fn invasion of HCT116: 0.1 µM
  inhibition of Fn invasion of HCT116: inhibited by purified GST-EC5 fusion protein in a dose-dependent manner

From patent US9670548B2, “Methods of diagnosing colorectal cancer by detecting FADA expression” (priority 2013, dated 2017)
